“And” between values parts separate entries of the source, which are not always exact repeats. Equal entries are not always repeated.
Key:
Assay type in all cases: cell-based, Plasmodium falciparum
PfCRT variant E207C = experiment: CQ uptake assay, oocytes expressing E207C
Protocol: (§1) Site-directed mutagenesis of PfCRT^Dd2 was performed as described using the megaprimer method with overlap extension[21],[54]. The primer pairs used are listed in Supplementary Table 6. Please note that a codon-optimized and oocyte-adapted version of PfCRT^Dd2 was used[22] (Supplementary Fig. 16). The resulting DNA fragment was cloned into the SP64T expression vector and verified by sequencing.
(§2) Oocytes were obtained as described previously. Briefly, adult (>2 years old) female X. laevis frogs (NASCO) were anesthetized in a cooled solution of ethyl 3-amino benzoate methanesulfonate (0.1%, w/v), followed by a surgical removal of parts of the ovary. The ovary lobes were carefully dissected and small pieces of oocytes were incubated in Ca^2+-free ND96 buffer (96 mM NaCl, 2 mM KCl, 1 mM MgCl2 buffered with 5 mM HEPES/NaOH, pH 7.5) supplemented with collagenase D (0.1%, w/v; Roche), BSA (0.5%, w/v), and 9 mm Na2HPO4 at 18 °C for 14-16 h while gentle shaking. After incubation, the oocytes were carefully washed several times with ND96 buffer (96 mM NaCl, 2 mM KCl, 1.8 mM CaCl2, 1 mM MgCl2 buffered with 5 mM HEPES/NaOH, pH 7.5) supplemented with 100 mg l^−1 gentamycin). Defolliculated and healthy-looking stage V-VI oocytes were manually selected for RNA microinjection. The RNA was generated as following: The codon-optimized sequences of PfCRT variants were cloned into the pSP64T expression vector. After vector linearization using the restriction endonucleases BamHI or SalI (New England Biolabs), transcription was performed using the in vitro SP6 mMessage mMachine Kit (Ambion)[34]. The obtained RNA was kept at −80 °C and diluted with nuclease-free water to a concentration of 0.6 μg μl^−1. Precision-bore glass capillary tubes (3.5-inch glass capillaries; Drummond Scientific Co.) were pulled on a vertical puller (P-87 Flaming/Brown micropipette puller, Sutter Instrument Co.), graduated, and placed on a microinjector (Nanoject II Auto-Nanoliter Injector, Drummond Scientific Co.). 50 nl of nuclease-free water alone (control oocytes) or 50 nl of 0.6 μg μl^−1 RNA were injected under stereomicroscopic control. Injected oocytes were incubated for 46–72 h at 18 °C with twice-daily buffer changes before usage in experiments.
Drug uptake assays were performed as described previously[21],[22],[24],[34]. […] The direction of radio-labeled drug transport is here from the mostly acidic extracellular solution (pH 4.5 or 6.0, as indicated) into the oocyte cytosol (pH ∼ 7.2), which corresponds to the efflux of drug from the acidic digestive vacuole (pH 5.2) into the parasite cytoplasm (pH 7.2). The topology of PfCRT in the oolemma is such that both the N- and C-terminus face the extracellular milieu[3],[22]. In the parasite, the N- and C-terminus face the lumen of the digestive vacuole. CQ uptake kinetics were performed by incubating oocytes in ND96 buffer adjusted to a pH of 4.5, 5.0, 5.5, or 6.0 and supplemented with 50 nM [^3H]CQ and one of 7 different CQ concentrations (10 µM, 50 µM, 100 µM, 200 µM, 300 µM, 400 µM, 500 µM CQ). The reaction was stopped at the 60 min time point, which is in the linear uptake range[22],[34] (Supplementary Fig. 17). For determination of the amount of drug uptake for each oocyte, the reaction medium was removed and the oocytes were washed three times with 2 ml of ice-cold ND96 buffer. Each oocyte was individually transferred to a scintillation vial containing 5% sodium dodecyl sulfate (200 μl) for lysis. The radioactivity of each sample was measured using a liquid scintillation analyzer Tri-Carb 4910 TR (PerkinElmer). Oocytes that were injected with water instead of RNA were analyzed in parallel, representing the uptake of a drug by diffusion and/or endogenous permeation pathways. The resulting value represents the “background“ level of drug accumulation in oocytes (in-depth discussion in[22]). […]

PfCRT variant E207W = experiment: CQ uptake assay, oocytes expressing E207W
Protocol: as §1, §2
(§3) Drug uptake assays were performed as described previously[21],[22],[24],[34]. […] The direction of radio-labeled drug transport is here from the mostly acidic extracellular solution (pH 4.5 or 6.0, as indicated) into the oocyte cytosol (pH ∼ 7.2), which corresponds to the efflux of drug from the acidic digestive vacuole (pH 5.2) into the parasite cytoplasm (pH 7.2). The topology of PfCRT in the oolemma is such that both the N- and C-terminus face the extracellular milieu[3],[22]. In the parasite, the N- and C-terminus face the lumen of the digestive vacuole. […] For determination of the amount of drug uptake for each oocyte, the reaction medium was removed and the oocytes were washed three times with 2 ml of ice-cold ND96 buffer. Each oocyte was individually transferred to a scintillation vial containing 5% sodium dodecyl sulfate (200 μl) for lysis. […] Oocytes that were injected with water instead of RNA were analyzed in parallel, representing the uptake of a drug by diffusion and/or endogenous permeation pathways. The resulting value represents the “background“ level of drug accumulation in oocytes (in-depth discussion in[22]). The specific PfCRT-mediated uptake was determined by subtracting the corresponding background value measured in water-injected oocytes from that of PfCRT-expressing oocytes. In all cases, at least three separate experiments were performed on oocytes from different frogs (biological replicate), and for each condition in an experiment, measurements were made from 10 oocytes per treatment. For pH 5.5, 6.0, and 6.5, ND96 was buffered with 5 mM MES/Tris base.

PfCRT variant E207I = experiment: CQ uptake assay, oocytes expressing E207I
Protocol: as §1, §2, §3

[1] = E207C, 50 µM CQ, 1 h, mean ± SEM
[2] = pH 4.5, individual replicates, Fig 6b
[3] = pH 6.0, individual replicates, Fig 6b
[4] = ratio of activity pH 4.5 / pH 6.0
[5] = E207W, 50 µM CQ, 1 h, mean ± SEM
[6] = E207I, 50 µM CQ, 1 h, mean ± SEM

For `CCN(CC)CCCC(C)Nc1ccnc2cc(Cl)ccc12` (stereo not drawn) [CQ, chloroquine], the “Activity at pH 4.5” value (PfCRT variant E207C; [1]) was 1.30 ± 0.11 pmol h-1 oocyte-1, the “Activity at pH 6.0” value (PfCRT variant E207C; [1]) was 1.53 ± 0.16 pmol h-1 oocyte-1 and the R-value (PfCRT variant E207C; E207C, CQ transport at pH 4.5 / pH 6.0) was 0.86 ± 0.09. For the same compound, the “E207C transport activity pH 4.5” value (PfCRT variant E207C; [2]) was 0.95 pmol oocyte-1 h-1 and 1.34 pmol oocyte-1 h-1 and 1.57 pmol oocyte-1 h-1 and 1.33 pmol oocyte-1 h-1, the “E207C transport activity pH 6.0” value (PfCRT variant E207C; [3]) was 1.15 pmol oocyte-1 h-1 and 2.00 pmol oocyte-1 h-1 and 1.64 pmol oocyte-1 h-1 and 1.34 pmol oocyte-1 h-1 and the “E207C R-value” (PfCRT variant E207C; [4]) was 0.83 and 0.67 and 0.96 and 0.99. For the same compound, the “Activity at pH 4.5” value (PfCRT variant E207W; [5]) was 2.40 ± 0.17 pmol h-1 oocyte-1, the “Activity at pH 6.0” value (PfCRT variant E207W; [5]) was 3.18 ± 0.35 pmol h-1 oocyte-1 and the R-value (PfCRT variant E207W; E207W, CQ transport at pH 4.5 / pH 6.0) was 0.78 ± 0.06. The “E207W transport activity pH 4.5” value (PfCRT variant E207W; [2]) was 2.68 pmol oocyte-1 h-1 and 2.94 pmol oocyte-1 h-1 and 1.91 pmol oocyte-1 h-1 and 1.82 pmol oocyte-1 h-1 and 2.34 pmol oocyte-1 h-1, the “E207W transport activity pH 6.0” value (PfCRT variant E207W; [3]) was 2.46 pmol oocyte-1 h-1 and 4.37 pmol oocyte-1 h-1 and 2.52 pmol oocyte-1 h-1 and 2.14 pmol oocyte-1 h-1 and 3.58 pmol oocyte-1 h-1 and 4.02 pmol oocyte-1 h-1 and the “E207W R-value” (PfCRT variant E207W; [4]) was 0.67 and 0.76 and 0.85 and 0.65. The “Activity at pH 4.5” value (PfCRT variant E207I; [6]) was 2.05 ± 0.22 pmol h-1 oocyte-1, the “Activity at pH 6.0” value (PfCRT variant E207I; [6]) was 2.15 ± 0.11 pmol h-1 oocyte-1 and the R-value (PfCRT variant E207I; E207I, CQ transport at pH 4.5 / pH 6.0) was 0.95 ± 0.01. For the same compound, the “E207I transport activity pH 4.5” value (PfCRT variant E207I; [2]) was 2.06 pmol oocyte-1 h-1 and 2.31 pmol oocyte-1 h-1, the “E207I transport activity pH 6.0” value (PfCRT variant E207I; [3]) was 2.16 pmol oocyte-1 h-1 and 1.90 pmol oocyte-1 h-1 and 2.38 pmol oocyte-1 h-1 and the “E207I R-value” (PfCRT variant E207I; [4]) was 0.95 and 0.93 and 0.97.

From article PMC10349806 (Nature Communications, 2023)
